The values that follow come from patent EP4682156A1, “LINKER AND DRUG CONJUGATE USING SAME, AND ANTIBODY-DRUG CONJUGATE AND USE THEREOF” (Shanghai Affinity Biopharmaceutical Co., Ltd., priority 2023, dated 2024).

One data set has as its target cathepsin L (Homo sapiens, UniProt P07711). Briefly: Enzymatic cleavage by cathepsin L, released DXD quantified by HPLC. The arrangement: Enzymatic cleavage efficiency %: concentration or dose not given beside the values. Type of data set: biochemical.
The conditions of data set [1]: human.
Data set [2] is described as follows: Stability in human plasma. Particulars: within 20 hours.
A further data set has as its system Human Fibrosarcoma. The arrangement: species or system Nude mice. The conditions noted are these: mouse, in vivo.

Read-outs that look alike come from different tables or passages of the source. *1 amine or outer side, *2 acyl side, *3 side chain or, on linkers, in order; H or OH if unused. Where a SMILES comes first, the peptide text is derived from it. [ ]: non-standard residue; d: D form. The star is where a group is joined. Doxorubicin(3'-N) = COc1cccc2c1C(=O)c1c(O)c3c(c(O)c1C2=O)C[C@@](O)(C(=O)CO)C[C@@H]3O[C@H]1C[C@H](N*)[C@H](O)[C@H](C)O1; Exatecan = CC[C@@]1(O)C(=O)OCc2c1cc1n(c2=O)Cc2c-1nc1cc(F)c(C)c3c1c2[C@@H](N*)CC3; X8 = CCc1c2c(nc3ccc(O)cc13)-c1cc3c(c(=O)n1C2)COC(=O)[C@@]3(CC)OCN*; X5 = CCc1c2c(nc3ccc(OCN*)cc13)-c1cc3c(c(=O)n1C2)COC(=O)[C@]3(O)CC; X1 = O=C(CCCCCOC1O[C@H](CO)[C@H](O)[C@H](O)[C@H]1N[*:1])[*:2]; X9 = Nc1ccn([C@@H]2O[C@H](COCN*)[C@@H](O)C2(F)F)c(=O)n1; Dolaproine = CO[C@@H]([C@@H]1CCCN1)[C@@H](C)C(=O)O; Hexanoyl(6-maleimido) = O=C1C=CC(=O)N1CCCCCC(=O)*; Dil = CC[C@H](C)[C@H](NC)[C@@H](CC(=O)O)OC; X4 = CCCCc1nc2c(N)nc3ccccc3c2n1CCCCN*; X7 = O=C(OC1[C@H]2CCC#CCC[C@@H]12)*; DBCO = C1#Cc2ccccc2N(*)Cc2ccccc21; NHCH2OCH2CO = O=C(COCN[*:1])[*:2]; X3 = C[C@@H](N*)[C@@H](O)c1ccccc1; X6 = O=C1C=C(Br)C(=O)N1CCC(=O)*; X2 = COCCOCCOCCOCCOCCOCC(=O)*; Suc = O=C(CCC(=O)[*:2])[*:1]; NMeV = CN[C@H](C(=O)O)C(C)C; PEG3 = NCCOCCOCCOCCC(=O)O; GABA = NCCCC(=O)O

Sequence of cathepsin L (P07711 114-333): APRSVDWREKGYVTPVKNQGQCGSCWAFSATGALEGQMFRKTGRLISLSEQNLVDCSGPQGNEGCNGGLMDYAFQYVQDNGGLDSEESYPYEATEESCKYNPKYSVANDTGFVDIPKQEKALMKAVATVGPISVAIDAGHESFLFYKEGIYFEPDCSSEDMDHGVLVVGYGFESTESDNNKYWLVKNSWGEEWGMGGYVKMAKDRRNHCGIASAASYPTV

On to `CC[C@@]1(O)C(=O)OCc2c1cc1n(c2=O)Cc2c-1nc1cc(F)c(C)c3c1c2[C@@H](NC(=O)COCNC(=O)[C@@H](N)CC(C)C)CC3` [L-AM-DXD, Leu-AM-DXd, reference compound], for which, on cathepsin L (pH 6), the “DXD produced, share of the reaction substrate (enzymatic cleavage activation efficiency)” value is listed as 1.45%.
`COc1cccc2c1C(=O)c1c(O)c3c(c(O)c1C2=O)C[C@@](O)(C(=O)CO)C[C@@H]3O[C@H]1C[C@H](NC(=O)[C@H](CC(C)C)NC(=O)[C@H](Cc2ccccc2)NC(=O)CNC(=O)CNC(=O)CCCCCN2C(=O)C=CC2=O)[C@H](O)[C@H](C)O1` [S1] ({Hexanoyl(6-maleimido)}-GGFL-{Doxorubicin(3'-N)}): in data set [1], the Generated load % stood at 0.0% and the Substrate content % is recorded as 100%. Further, the “Enzymatic cleavage efficiency %” value at cathepsin L is 90.5%.
Take `CC[C@@]1(O)C(=O)OCc2c1cc1n(c2=O)Cc2c-1nc1cc(F)c(C)c3c1c2[C@@H](NC(=O)[C@H](CC(C)C)NC(=O)[C@H](Cc1ccccc1)NC(=O)CNC(=O)CNC(=O)CCCCCN1C(=O)C=CC1=O)CC3` [S2] ({Hexanoyl(6-maleimido)}-GGFL-Exatecan): the “Enzymatic cleavage efficiency %” value at cathepsin L is listed as 91.1%. The Substrate content % in data set [2] was 100%.
Take `CCCCc1nc2c(N)nc3ccccc3c2n1CCCCNC(=O)[C@H](CC(C)C)NC(=O)[C@H](Cc1ccccc1)NC(=O)CNC(=O)CNC(=O)CCCCCN1C(=O)C=CC1=O` [S3] ({Hexanoyl(6-maleimido)}-GGFL-X4): the “Enzymatic cleavage efficiency %” value on cathepsin L (cathepsin L, within 20 h) worked out at 91.0%. This compound showed a Substrate content % in data set [2] of 100%.
With `CC[C@H](C)[C@@H]([C@@H](CC(=O)N1CCC[C@H]1[C@H](OC)[C@@H](C)C(=O)N[C@H](C)[C@@H](O)c1ccccc1)OC)N(C)C(=O)[C@@H](NC(=O)[C@H](C(C)C)N(C)C(=O)[C@H](CC(C)C)NC(=O)[C@H](Cc1ccccc1)NC(=O)CNC(=O)CNC(=O)CCCCCN1C(=O)C=CC1=O)C(C)C` [S5] ({Hexanoyl(6-maleimido)}-GGFL[NMeV]V[Dil][Dolaproine]-X3), at cathepsin L, the “Enzymatic cleavage efficiency %” value worked out at 93.1%.
With `CC[C@@]1(O)C(=O)OCc2c1cc1n(c2=O)Cc2c-1nc1cc(F)c(C)c3c1c2[C@@H](NC(=O)COCNC(=O)[C@H](CC(C)C)NC(=O)[C@H](Cc1ccccc1)NC(=O)CNC(=O)CNC(=O)CCCCCN1C(=O)C=CC1=O)CC3` [S6] ({Hexanoyl(6-maleimido)}-GGFL[NHCH2OCH2CO]-Exatecan), at cathepsin L, the “Enzymatic cleavage efficiency %” value is 98.0%. Moreover, in data set [2], the Generated load % is recorded as 2.0% and the Substrate content % is 98.0%.
For the compound `CC[C@@]1(O)C(=O)OCc2c1cc1n(c2=O)Cc2c-1nc1cc(F)c(C)c3c1c2[C@@H](NC(=O)COCNC(=O)[C@H](CC(C)C)NC(=O)[C@H](Cc1ccccc1)NC(=O)CNC(=O)CNC(=O)[C@H](CCCCNC(=O)COCCOCCOCCOCCOCCOC)NC(=O)CCCCCN1C(=O)C=CC1=O)CC3` [S8] ({Hexanoyl(6-maleimido)}-K(X2)GGFL[NHCH2OCH2CO]-Exatecan), in the data set with Human Fibrosarcoma, the “Anti-tumor rate% Day 20” value came to 98%, the “Tumor volume(mm^3) Day 20” value is 15 mm^3 and the “treatment efficacy compared with DXd” value is “significantly improved treatment efficacy”. Further, at cathepsin L, the “Enzymatic cleavage efficiency %” value is listed as 98.0%. Moreover, the Substrate content % in data set [2] amounted to 98.0%.
In the case of `CCc1c2c(nc3ccc(OCNC(=O)[C@H](CC(C)C)NC(=O)[C@H](Cc4ccccc4)NC(=O)CNC(=O)CNC(=O)CCCCCN4C(=O)C=CC4=O)cc13)-c1cc3c(c(=O)n1C2)COC(=O)[C@]3(O)CC` [S14] ({Hexanoyl(6-maleimido)}-GGFL-X5), on cathepsin L, the “Enzymatic cleavage efficiency %” value is on record as 98.0%. The same compound registered a Substrate content % in data set [2] of 98.0%.
Consider `CCc1c2c(nc3ccc(O)cc13)-c1cc3c(c(=O)n1C2)COC(=O)[C@@]3(CC)OCNC(=O)[C@H](CC(C)C)NC(=O)[C@H](Cc1ccccc1)NC(=O)CNC(=O)CNC(=O)CCCCCN1C(=O)C=CC1=O` [S15] ({Hexanoyl(6-maleimido)}-GGFL-X8), for which the “Enzymatic cleavage efficiency %” value at cathepsin L is reported as 95.1%.
On the same count and under the same terms, for `CC(C)C[C@H](NC(=O)[C@H](Cc1ccccc1)NC(=O)CNC(=O)CNC(=O)CCCCCN1C(=O)C=CC1=O)C(=O)NCOC[C@H]1O[C@@H](n2ccc(N)nc2=O)C(F)(F)[C@@H]1O` [S16] ({Hexanoyl(6-maleimido)}-GGFL-X9) the value was 92.3%.
For `CC[C@@]1(O)C(=O)OCc2c1cc1n(c2=O)Cc2c-1nc1cc(F)c(C)c3c1c2[C@@H](NC(=O)COCNC(=O)[C@H](CC(C)C)NC(=O)[C@H](Cc1ccccc1)NC(=O)CNC(=O)CNC(=O)CCCCCOC1O[C@H](CO)[C@H](O)[C@H](O)[C@H]1NC(C)=O)CC3` (stereo partly shown) [S18] (Ac-[X1]GGFL[NHCH2OCH2CO]-Exatecan), in the data set with Human Fibrosarcoma, the “Anti-tumor rate% Day 20” value was determined as 95%, the “Tumor volume(mm^3) Day 20” value worked out at 40 mm^3 and the “treatment efficacy compared with DXd” value is on record as “significantly improved treatment efficacy”. At cathepsin L, the “Enzymatic cleavage efficiency %” value is given as 98.3%. The same compound yielded a Substrate content % in data set [2] of 98.2%.
`CC[C@@]1(O)C(=O)OCc2c1cc1n(c2=O)Cc2c-1nc1cc(F)c(C)c3c1c2[C@@H](NC(=O)[C@H](CC(C)C)NC(=O)[C@H](Cc1ccccc1)NC(=O)CNC(=O)CNC(=O)CCN1C(=O)C=C(Br)C1=O)CC3` [S26] (X6-GGFL-Exatecan): the “Enzymatic cleavage efficiency %” value at cathepsin L was determined as 95.1%. Also, the Substrate content % in data set [2] came out at 100%.
Consider `CCCCc1nc2c(N)nc3ccccc3c2n1CCCCNC(=O)[C@H](CC(C)C)NC(=O)[C@H](Cc1ccccc1)NC(=O)CNC(=O)CNC(=O)CCOCCOCCOCCNC(=O)OC1[C@H]2CCC#CCC[C@@H]12` (stereo partly shown) [S27], for which, at cathepsin L (cathepsin L, within 20 h), the “Enzymatic cleavage efficiency %” value is listed as 94.5%. The compound also showed a Substrate content % in data set [2] of 100%.
On to `CC[C@@]1(O)C(=O)OCc2c1cc1n(c2=O)Cc2c-1nc1cc(F)c(C)c3c1c2[C@@H](NC(=O)CCCNC(=O)[C@H](CC(C)C)NC(=O)[C@H](Cc1ccccc1)NC(=O)CNC(=O)CNC(=O)CCOCCOCCOCCNC(=O)OC1[C@H]2CCC#CCC[C@@H]12)CC3` (stereo partly shown) [S28] ({X7-PEG3}-GGFL[GABA]-Exatecan), for which, at cathepsin L, the “Enzymatic cleavage efficiency %” value was 95.1%. In addition, in data set [2], the Substrate content % is 100%.
On to `CCCCc1nc2c(N)nc3ccccc3c2n1CCCCNC(=O)[C@H](CC(C)C)NC(=O)[C@H](Cc1ccccc1)NC(=O)CNC(=O)CNC(=O)CCOCCOCCOCCNC(=O)CCC(=O)N1Cc2ccccc2C#Cc2ccccc21` [S31] ({DBCO-Suc-PEG3}-GGFL-X4), for which the “Enzymatic cleavage efficiency %” value on cathepsin L is on record as 97.5%.
`CC[C@@]1(O)C(=O)OCc2c1cc1n(c2=O)Cc2c-1nc1cc(F)c(C)c3c1c2[C@@H](NC(=O)CCCNC(=O)[C@H](CC(C)C)NC(=O)[C@H](Cc1ccccc1)NC(=O)CNC(=O)CNC(=O)CCOCCOCCOCCNC(=O)CCC(=O)N1Cc2ccccc2C#Cc2ccccc21)CC3` [S32] ({DBCO-Suc-PEG3}-GGFL[GABA]-Exatecan): at cathepsin L, the “Enzymatic cleavage efficiency %” value is 98.0%. This compound returned a Substrate content % in data set [2] of 100%.
For `CC[C@@]1(O)C(=O)OCc2c1cc1n(c2=O)Cc2c-1nc1cc(F)c(C)c3c1c2[C@@H](NC(=O)COCNC(=O)[C@H](CC(C)C)NC(=O)[C@H](Cc1ccccc1)NC(=O)CNC(=O)CNC(=O)CCOCCOCCOCCNC(=O)CCC(=O)N1Cc2ccccc2C#Cc2ccccc21)CC3` [S34] ({DBCO-Suc-PEG3}-GGFL[NHCH2OCH2CO]-Exatecan), in that order: 98.1% and 98.3%.
